Data reported in patent publication US12012408B2, “Purine compounds and method for the treatment of cancer” (THE ROYAL INSTITUTION FOR THE ADVANCEMENT OF …, priority 2018, dated 2024).

Tests used:
[1] = test system: MDA-MB-231-M2 or 4T1 tumors; test: In vivo anti-metastatic activity in tumor-bearing mice
Excerpt: Breast cancer stem-like cells (BCSCs), heterogeneously subsisting as CD24low/CD44high and ALDHhigh subpopulations, are enriched in aggressive breast cancer subtypes and believed to be responsible for driving metastatic colonization. Despite evidence of a clinical association between BCSC and poor prognosis, effective therapeutic means to target this cell population is lacking. We identified SLLN-15 as a compound with selective anti-sternness activity across a panel of cell lines expressing ALDHhigh and CD24low/CD44high markers, including MDA-MB-231, SUM-149PT, BT-20, SKBR3, 4T1 and several anaplastic thyroid cell lines. […] In summary, our data foster that targeting regulatory networks driving sternness represent important therapeutic targets for treating metastatic breast disease.

[2] = test system: cleaved-PARP, cleaved-caspase 3, Bcl-2 in MDA-MB-231 and BT-20 cells; test: Western blot of indicators of apoptosis; format: cell-based
Experimental: (§1) Sub-confluent cells were washed with PBS, lysed in RIPA buffer (50 mM Tris-HCl at pH7.5, 150 mM sodium chloride, 1% tritonX-100, 0.1% SDS, 2 mM EDTA and 25 mM sodium fluoride) supplemented with 1 mM PMSF and protease inhibitor cocktail (Roche) for 10 min on ice and centrifuged (13,000 rpm at 4° C. for 20 min) to separate cell lysate. Cell lysate (50 μg protein, as measured by the Bradford protein assay) was then added with SDS sample buffer (Tris at pH 6.8, 20% glycerol, 5% SDS, bromophenol blue and β-mercaptoethanol) and boiled for 5 min. Samples were then resolved through 13% SDS-PAGE gels, transferred to nitrocellulose membrane, blotted with specific first antibodies at different dilution in cold room overnight, and then amplified with horseradish peroxidase-conjugated secondary antibodies for 1 hour in room temperature and enhanced by chemiluminescence detection system.
Considering apoptosis is the major form of cell death induced by chemotherapeutic agent, we seek to identify whether the anticancer effect of SLLN-15 was mediated via apoptosis in breast cancer cells.

[3] = test system: MDA-MB-231 and BT-20 cells; test: Propidium iodide staining and flow cytometry of DNA content; format: cell-based; conditions: treatment for 24 hours; FIG. 6C
Experimental: Cells were seeded into six-well plates and treated with the indicated concentration of SLLN-15 for 24 hours. After harvesting, cells were fixed in 80% methanol at −20° C. overnight. The fixed cells were washed twice with cold phosphate-buffered saline (PBS), incubated for 1 hour with 0.1% Triton X-100 and 0.5 μg/ml RNase A, and then stained with propidium iodide (PI) (Sigma) at a final concentration of 10 μg/ml in the dark at 4° C. until analysis. The fluorescent signal was detected through the FL-2 channel using FACSCalibur flow cytometry (Becton Dickson), and the proportion of DNA in various phases was analyzed using FCS Express version 3.0 (De novo Software, Glendale, California, USA)

[4] = test system: breast cancer cell lines MDA-MB-231, BT20, MDA-MD468, 4T1, MCF-7, SKBR3; test: Colony formation assay (long-term cell viability); format: cell-based; conditions: MDA-MB-231, BT20, MDA-MD468, 4T1, MCF-7 (ER+, PR+), SKBR3 (Her2+); FIG. 1B
Experimental: The long-term effects of SLLN-15 on tumor cell growth were assessed using the colony formation assay. Cells were trypsinized and plated in triplicate wells in 12-well plate (500 cells/well). After six hours of incubation, cells were treated with the indicated concentrations of SLLN-15 or DMSO. 7 days after the cells plated and treated, they were washed and stained with a mixture of 0.05% w/v crystal violet and 6% v/v glutaraldehyde, and the colonies >100 μm in diameter were counted using a colony counter (Oxford Optronix Gelcount, Inc., Milton Park, Abingdon, UK).

[5] = test system: autophagy (LC3) in MDA-MB-231 and BT-20 cells; test: Autophagy markers: LC3 western blot, LC3 puncta immunofluorescence, mCherry-GFP-LC3 flux; format: cell-based
Experimental: as §1
Cells were grown on 18-mm cover glass, placed in 6-well culture plate for 24 hours, rinsed in PBS, fixed with 4% paraformaldehyde/PBS for 10 min, washed twice in PBS with 0.2% TritonX-100, blocked in PBS with 0.2% Triton X-100 containing 1% BSA (Bioshop) and incubated with primary antibodies overnight at 4° C. (all in 1/100 diluted in blocking solution). The cells were washed with PBS containing 0.2% TritonX-100 and subsequently incubated with Alexa Fluor 488-labelled, Alexa Fluor 594-labelled, or Alexa Fluor 647-labelled secondary antibodies (all were used at 1/500 dilution in blocking solution) for 1 hour in room temperature. The nuclei were stained with DAPI (0.1 μg/ml) for 5 min before mounted with aqueous mounting medium. Cells were imaged using WaveFX spinning disk confocal microscope system (Quorum Technologies INC.). Images shown are representative of three independent experiments.
In order to determine whether SLLN-15 affects autophagy in triple-negative breast cancer cells, we first investigated its effect on the formation of autophagosomes by detecting the conversion of LC3-I to lipidated LC3-II and the distribution of endogenous LC3 puncta, both classic markers of autophagy regulation (Klionsky D J et al. Guidelines for the use and interpretation of assays for monitoring autophagy (3rd edition) Autophagy 2016; 12:1-222). […] In order to visualize the induction of autophagy by SLLN-15, we then used transmission electron microscopy.
Distinguishing between autophagy inducers and inhibitors is a delicate task, since both cause a build-up of LC3-II and LC3-positive puncta (Mizushima N, et al. Methods in mammalian autophagy research Cell 2010; 140:313-26). Therefore, to further determine the role of SLLN-15 on autophagy, we next investigated its impact on autophagic flux using a tandem monomeric mCherry-GFP-tagged LC3. […] SLLN-15-induced autophagic flux was further examined in the presence or absence of the autophagosome-lysosome fusion inhibitor, chloroquine (CQ) (Mizushima N, et al. Methods in mammalian autophagy research Cell 2010; 140:313-26). […] This observation was further confirmed by detecting the number of LC3 puncta in SLLN-15-treated cells, as compared to SLLN-15 combined with CQ (FIG. 3D).

[6] = test system: 4T1 cells (triple-negative breast carcinoma); test: In vivo orthotopic allograft model of breast cancer; parameters: species or system BALB/c mice
Experimental: All experiments were carried out according to protocol number 4101 of the McGill University Animal Care Committee. Mouse mammary carcinoma 4T1 cells (1×10^6 cells/each mouse) were transplanted into the mammary fat pad of BALB/c mice. […] Tumor size was measured using a caliper, and tumor volume was calculated as […] (length×width2). Mice were sacrificed 40 days after transplanting. Tumor tissues were isolated and fixed in 10% formalin. The lungs were fixed in 10% Bouin's fixative and lung metastatic nodules on the surface were counted using a stereomicroscope (Optimax; Leica).

For `c1nc2nc(Nc3ccc(N4CC[Se]CC4)cc3)nc(N[C@H]3CC[Se]C3)c2[nH]1` [SLLN-15], the anti-metastatic activity ([1]; mice bearing MDA-MB-231-M2 or 4T1 tumors, administered intraperitoneally) was “significant anti-metastatic activity”, the “MDA-MB-231-M2 progression to metastasis” value ([1]; pretreatment ex vivo prior to mouse implantation) was “significantly attenuated” and the “indicators of apoptosis: upregulation of cleaved-PARP and cleaved-caspase 3, downregulation of Bcl-2” value ([2]; FIG. 6B) was “not SLLN-15 treated cells”. For the same compound, the apoptosis ([2]; up to 48 hours post-exposure, breast cancer cells) was “no significant apoptosis was observed”, the “apoptosis (sub-G1 phase)” value [3] was “no obvious apoptosis” and the “cells arrested in G2/M phase and polyploidy (>4N)” value [3] was “significantly higher percentage”. The colony formation abilities [4] was “equally inhibit the colony formation abilities”, the “expression level of p62/SQSTM1, Beclin1, Atg5 and Atg7” value ([5]; FIG. S2) was “no changes in their expression levels were observed” and the “autophagic flux, mCherry-GFP-tagged LC3” value ([5]; MDA-MB-231 and BT-20 cells, FIGS. 3A and B) was “increased formation of yellow fluorescence (autophagosomes) and red fluorescence (autophagolysosomes)”. For the same compound, the LC3-II/LC3-I ratio ([5]; SLLN-15 combined with chloroquine (CQ), compared to SLLN-15 alone, FIG. 3C) was “enhanced LC3-II/LC3-I ratio”, the LC3-II/I ratio ([5]; combination of SLLN-15 with 3-methyladenine (3-MA), FIG. 5C) was “significantly decreases LC3-II/I ratio” and the “LC3-II conversion and LC3 puncta” value ([5]; dose-dependent, FIGS. 2A and B) was “increased LC3-II conversion and LC3 puncta”. The tumor volumes ([6]; 30 mg/kg given PO, compared to vehicle, FIG. 1D) was “reduced”, the tumor weights ([6]; 30 mg/kg given PO, compared to vehicle, FIG. 1E) was “reduced” and the “tumor allograft growth rate” value ([6]; 30 mg/kg given PO, compared to vehicle, FIGS. 1D and E) was “grew at a slower rate”. For the same compound, the “number of lung metastases” value ([6]; compared with vehicle-treated animals, FIG. 1F) was “significant inhibition of the number of lung metastases”.
